Measurements published in the supplement of paper PMC10307832.

compound: Cc1nc(C(=O)NCC(=O)O)c(O)c2ccc(Oc3ccccc3)cc12 [FG-4592] + CCNC(=O)c1noc(-c2cc(C(C)C)c(O)cc2O)c1-c1ccc(CN2CCOCC2)cc1 [Luminespib] (partner 0.01 µM); assay: relative viability (nuclei count vs DMSO), 5 days (fraction); higher = more cells survive; conditions: first compound 0.08 µM
In short: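 Nuclei were stained with Hoechst during a one-step fixation (final 0.05% Triton X-100, 1% formaldehyde, 1 ug/ml Hoechst) carried out 5 days after dosing, then counted on 4× images. The cells, lung cancer lines in 1536-well plates, had been dosed by pin tool the day after seeding with one drug alone or a fixed anchor-drug dose plus five library-drug doses (not always all listed) in √10 steps. Relative viability is the nuclei count in treated wells divided by that in vehicle wells, and each value is the median of duplicate plates.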

Cell Line	relative viability
NCI-H23	0.208
NCI-H647	0.183
CAL-12T	0.212
NCI-H1651	0.9
EPLC-272H	0.455
NCI-H2228	0.151
NCI-H1792	0.36
NCI-H1355	0.808
NCI-H3122	0.079
NCI-H1437	1.21
NCI-H1755	0.417
NCI-H2023	0.617
HCC-15	0.403
NCI-H1793	0.155
PC-14	0.136
EKVX	0.842
LC-2-ad	0.961
NCI-H1944	0.762
NCI-H1975	0.305
RERF-LC-KJ	1.23
NCI-H358	0.311
NCI-H650	0.766
PC-3 [JPC-3]	0.735

same assay, conditions: first compound 0.253 µM

Cell Line	relative viability
LXF-289	0.675
NCI-H23	0.247
NCI-H647	0.181
CAL-12T	0.458
NCI-H1651	0.767
EPLC-272H	0.241
NCI-H2228	0.181
NCI-H1792	0.492
NCI-H1355	0.67
NCI-H3122	0.108
NCI-H1437	1.11
NCI-H1755	0.295
NCI-H2023	0.634
HCC-15	0.371
NCI-H1793	0.227
PC-14	0.177
EKVX	0.807
LC-2-ad	0.885
NCI-H1944	0.716
NCI-H1975	0.244
RERF-LC-KJ	1.24
NCI-H358	0.36
NCI-H650	0.797
PC-3 [JPC-3]	0.639

same assay, conditions: first compound 0.8 µM

Cell Line	relative viability
LXF-289	0.712
NCI-H23	0.179
NCI-H647	0.174
CAL-12T	0.129
NCI-H1651	0.789
EPLC-272H	0.212
NCI-H2228	0.174
NCI-H1792	0.454
NCI-H1355	0.465
NCI-H3122	0.0631
NCI-H1437	1.27
NCI-H1755	0.331
NCI-H2023	0.698
HCC-15	0.26
PC-14	0.143
EKVX	0.81
NCI-H1944	0.728
NCI-H1975	0.2
RERF-LC-KJ	1.45
NCI-H358	0.426
NCI-H650	0.597
PC-3 [JPC-3]	0.817

same assay, conditions: first compound 2.53 µM

Cell Line	relative viability
LXF-289	0.596
NCI-H23	0.203
NCI-H647	0.201
CAL-12T	0.375
NCI-H1651	0.836
EPLC-272H	0.295
NCI-H2228	0.113
NCI-H1792	0.413
NCI-H1355	0.681
NCI-H3122	0.092
NCI-H1437	0.984
NCI-H1755	0.492
NCI-H2023	0.773
HCC-15	0.302
NCI-H1793	0.157
PC-14	0.197
EKVX	0.891
LC-2-ad	0.932
NCI-H1944	0.891
NCI-H1975	0.187
RERF-LC-KJ	1.17
NCI-H358	0.395
NCI-H650	0.746
PC-3 [JPC-3]	0.798

same assay, conditions: first compound 8 µM

Cell Line	relative viability
LXF-289	0.711
NCI-H23	0.184
NCI-H647	0.109
CAL-12T	0.689
NCI-H1651	0.867
EPLC-272H	0.228
NCI-H2228	0.16
NCI-H1792	0.478
NCI-H1355	0.676
NCI-H3122	0.0857
NCI-H1437	0.95
NCI-H1755	0.517
NCI-H2023	0.599
HCC-15	0.253
NCI-H1793	0.185
PC-14	0.16
EKVX	0.9
LC-2-ad	0.926
NCI-H1944	0.763
NCI-H1975	0.0934
RERF-LC-KJ	0.991
NCI-H358	0.238
NCI-H650	0.713
PC-3 [JPC-3]	0.575
